Consider one compound from publication PMC8513901, “Cooperative stabilisation of 14-3-3σ protein–protein interactions via covalent protein modification” (Chemical Science, 2021).

Each structure is given as a SMILES string.

The target in the test is T1, 14-3-3σ (Homo sapiens, UniProt P31947).
T1 construct: gene SFN; with ERα phospho-peptide (588AEGFPApTV595 in the crystal)
T1 sequence (P31947 1-248): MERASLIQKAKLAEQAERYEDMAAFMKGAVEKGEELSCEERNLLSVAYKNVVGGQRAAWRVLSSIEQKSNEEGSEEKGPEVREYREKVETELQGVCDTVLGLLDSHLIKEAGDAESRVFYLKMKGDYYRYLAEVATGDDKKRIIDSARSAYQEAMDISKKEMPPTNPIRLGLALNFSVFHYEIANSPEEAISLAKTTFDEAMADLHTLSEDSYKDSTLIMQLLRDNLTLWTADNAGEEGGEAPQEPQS
The test is described as follows: crystal structure with ERα phospho-peptide and […]; FP dose-response and ITC stabilisation. It is filed as binding.

Usually EC50 stands for the concentration needed to bring the measured effect to its halfway point. A lower EC50 goes with greater potency. For the compound `C=CC(C)(C)OC[C@H]1O[C@H](O[C@@H]2C3=C([C@H](C)COC(C)=O)C[C@H](O)[C@]3(C)/C=C3/[C@@H](COC)CC[C@H]3[C@@H](C)[C@H]2O)[C@H](O)[C@@H](OC(C)=O)[C@@H]1O` [compound 1, fusicoccin A], the response was half-maximal at 880 nM (EC50).
